Measured values: patent publication US8299056B2 (Signal Pharmaceuticals, LLC, priority 2008, dated 2012)

The molecules below were run against T1, Syk (Homo sapiens, UniProt P43405) (assay: Syk HTRF assay). Conditions: IC50 activity level, read-out: Activity Level.
T1 construct: purchased Carna Biosciences
Format: biochemical
Procedure, shortened: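 Read-out is the 665 nm/615 nm time-resolved fluorescence ratio after EDTA stop and Eu-anti-phosphotyrosine plus streptavidin-DyLight 647 detection. Reaction ran 1 h at room temperature with start mix of 87.5 μM ATP and 80 nM substrate peptide in pH 7.6 HEPES/MgCl2 buffer.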

Question: For CC1(C)C(=O)Nc2cc(Nc3nc4cccc(C(F)(F)C5CCOCC5)n4n3)ccc21 [Example 536, 6-(5-(difluoro(tetrahydro-2H-pyran-4-yl)methyl)-[1,2,4]triazolo[1,5-a]pyridin-2-ylamino)-3,3-dimethylindolin-2-one], which IC50 is on record?
Answer: Its IC50 is 0.005 to 250 nM.

Question: With OC[C@H](Nc1cccc2nc(Nc3ccc(C(F)(F)F)cc3)nn12)c1ccccc1 [Example 412, (R)-2-phenyl-2-(2-(4-(trifluoromethyl)phenylamino)-[1,2,4]triazolo[1,5-a]pyridin-5-ylamino)ethanol] as the molecule, how does the IC50 read?
Answer: The IC50 was 1000 to 10000 nM.

Question: How did the IC50 turn out when Fc1ccc(Nc2nc3cccc(NC4CCCCNC4)n3n2)cc1 (centres unmarked) [Example 427, N^5-(azepan-3-yl)-N^2-(4-fluorophenyl)-[1,2,4]triazolo[1,5-a]pyridine-2,5-diamine] was run?
Answer: The IC50 was 250 to 500 nM.

Question: How did the IC50 turn out when Nc1n[nH]c2cc(-c3cccc4nc(Nc5ccccc5)nn34)ccc12 [Example 439, 5-(3-amino-1H-indazol-6-yl)-N-phenyl-[1,2,4]triazolo[1,5-a]pyridin-2-amine] was run?
Answer: The IC50 was 0.005 to 250 nM.

Question: For O[C@@H]1CCC(Nc2cccc3nc(Nc4ccc(C(F)(F)F)cc4)nn23)C1 (stereo in doubt) [Example 420, (1R,3R)-3-(2-(4-(trifluoromethyl)phenylamino)-[1,2,4]triazolo[1,5-a]pyridin-5-ylamino)cyclopentanol], which IC50 is on record?
Answer: Its IC50 is 250 to 500 nM.

Question: For C[C@@H](CO)Cc1cccc2nc(Nc3ccccc3)nn12 [Example 479, (R)-2-methyl-3-(2-(phenylamino)-[1,2,4]triazolo[1,5-a]pyridin-5-yl)propan-1-ol], which IC50 is on record?
Answer: Its IC50 is 500 to 1000 nM.

Question: For c1cc(NC2CCCNC2)n2nc(Nc3ccc(N4CCOCC4)nc3)nc2c1 (stereo in doubt) [Example 411, (S)-N^2-(6-morpholinopyridin-3-yl)-N^5-(piperidin-3-yl)-[1,2,4]triazolo[1,5-a]pyridine-2,5-diamine], which IC50 is on record?
Answer: Its IC50 is 0.005 to 250 nM.

Question: How did the IC50 turn out when c1cc(N[C@H]2CCCNC2)n2nc(Nc3ccc4nn[nH]c4c3)nc2c1 [Example 454, (S)-N^2-(1H-benzo[d][1,2,3]triazol-6-yl)-N^5-(piperidin-3-yl)-[1,2,4]triazolo[1,5-a]pyridine-2,5-diamine] was run?
Answer: The IC50 was 0.005 to 250 nM.

Question: For c1ccc(Nc2nc3cccc(N[C@H]4CCCNC4)n3n2)cc1 [Example 507, (S)-N^2-phenyl-N^5-(piperidin-3-yl)-[1,2,4]triazolo[1,5-a]pyridin-2,5-diamine], which IC50 is on record?
Answer: Its IC50 is 0.005 to 250 nM.

Question: With CC(C)(C)OC(=O)N1C(=O)C(C)(C)c2ccc(Nc3nc4cccc(N[C@H]5CC[C@@H](O)CC5)n4n3)cc21 [Example 545, cis-tert-butyl 6-(5-(4-hydroxycyclohexylamino)-[1,2,4]triazolo[1,5-a]pyridin-2-ylamino)-3,3-dimethyl-2-oxoindoline-1-carboxylate] as the molecule, how does the IC50 read?
Answer: The IC50 was 0.005 to 250 nM.

Question: How did the IC50 turn out when O=C1NCc2cc(-c3cccc4nc(Nc5ccccc5)nn34)ccc21 [Example 496, 5-(2-(phenylamino)-[1,2,4]triazolo[1,5-a]pyridin-5-yl)isoindolin-1-one] was run?
Answer: Its IC50 is 250 to 500 nM.

Same assay, conditions: activity levels A-D, read-out: Activity Level (IC50 in the Syk HTRF assay)

Question: Which IC50 does the source give for OCC1CCN(c2cccc3nc(Nc4ccc(C(F)(F)F)cc4)nn23)CC1 [Example 346, (1-(2-(4-(trifluoromethyl)phenylamino)-[1,2,4]triazolo[1,5-a]pyridin-5-yl)piperidin-4-yl)methanol] here?
Answer: The IC50 was 1000 to 10000 nM.

Question: Which IC50 does the source give for FC(F)(F)c1ccc(Nc2nc3cccc(OC4CCCNC4)n3n2)cc1 (stereo in doubt) [Example 361, (R)-5-(piperidin-3-yloxy)-N-(4-(trifluoromethyl)phenyl)-[1,2,4]triazolo[1,5-a]pyridin-2-amine] here?
Answer: Its IC50 is 1000 to 10000 nM.

Question: For Cc1c2ccc(Nc3nc4cccc(N[C@H]5CC[C@@H](O)CC5)n4n3)cc2nn1C [Example 217, cis-4-(2-(2,3-dimethyl-2H-indazol-6-ylamino)-[1,2,4]triazolo[1,5-a]pyridin-5-ylamino)cyclohexanol], which IC50 is on record?
Answer: The IC50 was 0.005 to 250 nM.

Question: With COc1ccc(Nc2nc3cccc(N[C@H]4CC[C@@H](O)CC4)n3n2)cn1 [Example 391, cis-4-(2-(6-methoxypyridin-3-ylamino)-[1,2,4]triazolo[1,5-a]pyridin-5-ylamino)cyclohexanol] as the molecule, how does the IC50 read?
Answer: Its IC50 is 500 to 1000 nM.

Question: For Cn1ncc2cc(Nc3nc4cccc(N[C@H]5CC[C@@H](O)CC5)n4n3)ccc21 [Example 236, cis-4-(2-(1-methyl-1H-indazol-5-ylamino)-[1,2,4]triazolo[1,5-a]pyridin-5-ylamino)cyclohexanol], which IC50 is on record?
Answer: The IC50 was 0.005 to 250 nM.

Question: For CC1C(=O)NCCN1Cc1cccc2nc(Nc3ccc(C(F)(F)F)cc3)nn12 (centres unmarked) [Example 281, 3-methyl-4-((2-(4-(trifluoromethyl)phenylamino)-[1,2,4]triazolo[1,5-a]pyridin-5-yl)methyl)piperazin-2-one], which IC50 is on record?
Answer: Its IC50 is 0.005 to 250 nM.

Question: For O=C1CN(Cc2cccc3nc(Nc4ccc(C(F)(F)F)cc4)nn23)CC(=O)N1 [Example 264, 4-((2-(4-(trifluoromethyl)phenylamino)-[1,2,4]triazolo[1,5-a]pyridin-5-yl)methyl)piperazine-2,6-dione], which IC50 is on record?
Answer: Its IC50 is 0.005 to 250 nM.

Question: With Cc1n[nH]c2cc(Nc3nc4cccc(NCC5CCOCC5)n4n3)ccc12 [Example 220, N^2-(3-methyl-1H-indazol-6-yl)-N^5-((tetrahydro-2H-pyran-4-yl)methyl)-[1,2,4]triazolo[1,5-a]pyridin-2,5-diamine] as the molecule, how does the IC50 read?
Answer: Its IC50 is 250 to 500 nM.

Question: With OC1CCN(c2ccc(Nc3nc4cccc(N[C@H]5CC[C@@H](O)CC5)n4n3)cn2)CC1 [Example 294, cis-1-(5-(5-(4-hydroxycyclohexylamino)-[1,2,4]triazolo[1,5-a]pyridin-2-ylamino)pyridin-2-yl)piperidin-4-ol] as the molecule, how does the IC50 read?
Answer: The IC50 was 0.005 to 250 nM.

Question: CCc1n[nH]c2cc(Nc3nc4cccc(N[C@H]5CC[C@@H](O)CC5)n4n3)ccc12 [Example 245, cis-4-(2-(3-ethyl-1H-indazol-6-ylamino)-[1,2,4]triazolo[1,5-a]pyridin-5-ylamino)cyclohexanol] was tested. Which IC50 did it give?
Answer: Its IC50 is 0.005 to 250 nM.

Question: Which IC50 does the source give for Cc1cc(Nc2nc3cccc(CN4CCNC(=O)C4)n3n2)ccc1F [Example 228, 4-((2-(4-fluoro-3-methylphenylamino)-[1,2,4]triazolo[1,5-a]pyridin-5-yl)methyl)piperazin-2-one] here?
Answer: Its IC50 is 250 to 500 nM.

Question: How did the IC50 turn out when COc1cc(Nc2nc3cccc(N[C@H]4CC[C@@H](O)CC4)n3n2)ccn1 [Example 378, cis-4-(2-(2-methoxypyridin-4-ylamino)-[1,2,4]triazolo[1,5-a]pyridin-5-ylamino)cyclohexanol] was run?
Answer: Its IC50 is 0.005 to 250 nM.

Question: With O[C@H]1CC[C@@H](Nc2cccc3nc(Nc4ccc5cn[nH]c5c4)nn23)CC1 [Example 365, cis-4-(2-(1H-indazol-6-ylamino)-[1,2,4]triazolo[1,5-a]pyridin-5-ylamino)cyclohexanol] as the molecule, how does the IC50 read?
Answer: The IC50 was 0.005 to 250 nM.

Question: Cc1cc(Nc2nc3cccc(N[C@H]4CC[C@@H](O)CC4)n3n2)cc2[nH]ncc12 [Example 204, cis-4-(2-(4-methyl-1H-indazol-6-ylamino)-[1,2,4]triazolo[1,5-a]pyridin-5-ylamino)cyclohexanol] was tested. Which IC50 did it give?
Answer: The IC50 was 0.005 to 250 nM.

Same assay, conditions: read-out: Activity Level (Syk HTRF assay IC50)

Question: For CN1C(=O)C(C)(C)c2ccc(Nc3nc4cccc(N[C@H]5CC[C@@H](O)CC5)n4n3)cc21 [Example 152, cis-6-(5-(4-hydroxycyclohexylamino)-[1,2,4]triazolo[1,5-a]pyridin-2-ylamino)-1,3-3-trimethylindolin-2-one], which IC50 is on record?
Answer: Its IC50 is 0.005 to 250 nM.

Question: With Nc1noc2ccc(Nc3nc4cccc(-c5ccccc5)n4n3)cc12 [compound 42] as the molecule, how does the IC50 read?
Answer: The IC50 was 0.005 to 250 nM.

Question: CC(=O)N1CCc2cc(Nc3nc4cccc(-c5ccccc5)n4n3)ccc21 [compound 60, 1-(5-(5-phenyl-[1,2,4]triazolo[1,5-a]pyridin-2-ylamino)indolin-1-yl)ethanone] was tested. Which IC50 did it give?
Answer: Its IC50 is 0.005 to 250 nM.

Question: For CC1(C)C(=O)Nc2cc(Nc3nc4cccc(NC5CCOCC5)n4n3)ccc21 [Example 177, 3,3-dimethyl-6-(5-(tetrahydro-2H-pyran-4-ylamino)-[1,2,4]triazolo[1,5-a]pyridin-2-ylamino)indolin-2-one], which IC50 is on record?
Answer: The IC50 was 0.005 to 250 nM.

Question: Cc1n[nH]c2cc(Nc3nc4cccc(NC[C@@H]5CCC(O)C5)n4n3)ccc12 (stereo in doubt) [Example 179, (1R,3R)-3-((2-(3-methyl-1H-indazol-6-ylamino)-[1,2,4]triazolo[1,5-a]pyridin-5-ylamino)methyl)cyclopentanol] was tested. Which IC50 did it give?
Answer: Its IC50 is 0.005 to 250 nM.

Question: How did the IC50 turn out when COCc1nc2ccc(Nc3nc4cccc(Cc5ccnc(O)c5)n4n3)cc2[nH]1 [compound 130] was run?
Answer: Its IC50 is 0.005 to 250 nM.

Question: For CC1(C)NC(=O)c2cc(Nc3nc4cccc(CC5CCOCC5)n4n3)ccc21 [compound 113, 3,3-dimethyl-6-(5-((tetrahydro-2H-pyran-4-yl)methyl)-[1,2,4]triazolo[1,5-a]pyridin-2-ylamino)isoindolin-1-one], which IC50 is on record?
Answer: The IC50 was 1000 to 10000 nM.

Question: For NCCNc1cc(Nc2nc3cccc(-c4ccccc4)n3n2)ccn1 [compound 39], which IC50 is on record?
Answer: Its IC50 is 250 to 500 nM.

Question: CNC(=O)c1ccc(Nc2nc3cccc(-c4cccc(CCCN)c4)n3n2)cc1 [compound 8, 4-(5-(3-(3-aminopropyl)phenyl)-[1,2,4]triazolo[1,5-a]pyridin-2-ylamino)-N-methylbenzamide] was tested. Which IC50 did it give?
Answer: Its IC50 is 0.005 to 250 nM.

Question: Which IC50 does the source give for Cc1n[nH]c2cc(Nc3nc4cccc(CN5CC(C)(O)C5)n4n3)ccc12 [Example 169, 3-methyl-1-((2-(3-methyl-1H-indazol-6-ylamino)-[1,2,4]triazolo[1,5-a]pyridin-5-yl)methyl)azetidin-3-ol] here?
Answer: Its IC50 is 250 to 500 nM.

Question: How did the IC50 turn out when Cc1n[nH]c2cc(Nc3nc4cccc(CNCC(N)=O)n4n3)ccc12 [Example 186, 2-((2-(3-methyl-1H-indazol-6-ylamino)-[1,2,4]triazolo[1,5-a]pyridin-5-yl)methylamino)acetamide] was run?
Answer: The IC50 was 0.005 to 250 nM.

Question: How did the IC50 turn out when CNC(=O)c1ccc(Nc2nc3cccc(-c4cccc(C(N)=O)c4)n3n2)cc1 [compound 18, 4-(5-(3-carbamoylphenyl)-[1,2,4]triazolo[1,5-a]pyridin-2-ylamino)-N-methylbenzamide] was run?
Answer: Its IC50 is 500 to 1000 nM.

Question: Which IC50 does the source give for CC1(C)NC(=O)c2cc(Nc3nc4cccc(N[C@H]5CC[C@H](O)CC5)n4n3)ccc21 (stereo in doubt) [Example 137, trans-6-(5-(4-hydroxycyclohexylamino)-[1,2,4]triazolo[1,5-a]pyridin-2-ylamino)-3,3-dimethylisoindolin-1-one] here?
Answer: The IC50 was 500 to 1000 nM.
